Like-named read-outs stand apart in the source and are kept apart here.
Key:
[1] = system: MV4-11; experiment: Cell viability assay (CellTiter-Blue), MV4-11; format: cell-based; settings: Homo sapiens
Text: (§1) The representative compounds of the invention are also screened as regards their effects on cell proliferation and viability using a variety of human tumour cell lines, which are representative of various pathological indications. These cell lines include: • Models of haematological cancers: • TF-1 (acute myelogenic leukaemia; AML M6 at the time of diagnosis); • KG-1 (AML; erythroleukaemia evolving into AML); • KG-1a (AML; sub-clone derived from immature KG-1); • EOL-1 (AML; eosinophilic leukaemia); • PL-21 (AML; M3); • ML-2 (AML; T-NHL evolving into T-ALL evolving into AML M4); • HL-60 (AML, M3); • Kasumi-1 (AML); • GDM-1 (AML); • K-562 (CML—chronic myelogenic leukaemia; blastic crisis); • JURL-MK1 (CML; blastic crisis); • DND-41 (T-ALL—-cell acute lymphoblastic leukaemia); • Jurkat (T-ALL); NALM-6 (B-ALL—B-cell ALL); • CEM (ALL; lymphosarcoma evolving into ALL); • Jeko-1 (B-NHL—B-cell non-Hodgkin lymphoma; mantle-cell lymphoma derived from a variant with large cells as a leukaemic transformation); • WSU-DLCL2 (B-NHL; large B-cell diffuse lymphoma); • RL (B-NHL; undifferentiated diffuse); • OCI-Ly10 (B-NHL); • DoHH-2 (B-NHL); • RPMI-8226 (MM—multiple myeloma); • JVM-2 (B-CLL—B-cell chronic lymphocytic leukaemia); and • JVM-3 (B-CLL) • MV4-11 (AML) • MOLM13 (AML). • Solid tumour models: • HCT-116 (bowel cancer); • HT-29 (bowel cancer); • HC-15 (bowel cancer); • H460 (lung cancer; non-small-cell lung cancer); • A375 (melanoma); • B16F10 (melanoma); • MDA-A1 (breast cancer); • MDA-MB231 (breast cancer); • MDA-MB231 adr (breast cancer); • PANC-1 (pancreatic cancer); and • PC-3 (prostate cancer).
(§2) In order to measure the viability, the tumour cells are incubated in a 96-well or 384-well format for 48, 72 or 96 hours, preferably 72 hours, with a compound of the invention at dilutions of a factor 3 with, in general, nine doses in total, the highest dose being equal to 10 μM or 30 μM. The cell viability is evaluated by adding CellTiter-Blue® (Promega, Madison, Wis., United States) for 4 hours and end-point readings are taken using a SpectraMax Genmini EM (Molecular Devices, Sunnyvale, Calif., United States). The CellTiter-Blue® cell viability assay measures the ability of the cells in culture to reduce resazurin to resorufin, the fluorescence signal intensity being directly proportional to the number of live cells.

[2] = system: KG-1a; experiment: Cell viability assay (CellTiter-Blue), KG-1a; format: cell-based; settings: Homo sapiens; KG-1a cells; cell proliferation/viability; read-out: EC50 KG-1a μM (leukaemia)
Text: as §1, §2

[3] = molecular target: T1, Pim-2 (Homo sapiens, UniProt Q9P1W9); experiment: TR-FRET assay, Pim-2 kinase (phosphorylation of Bad Ser112); format: biochemical; settings: TR-FRET; ATP 40 μM; read-out: IC50 Pim2
T1 construct: His6-labelled recombinant full-length human Pim-1, Pim-2 or Pim-3 protein; His6; made in house
T1 sequence (Q9P1W9 whole entry): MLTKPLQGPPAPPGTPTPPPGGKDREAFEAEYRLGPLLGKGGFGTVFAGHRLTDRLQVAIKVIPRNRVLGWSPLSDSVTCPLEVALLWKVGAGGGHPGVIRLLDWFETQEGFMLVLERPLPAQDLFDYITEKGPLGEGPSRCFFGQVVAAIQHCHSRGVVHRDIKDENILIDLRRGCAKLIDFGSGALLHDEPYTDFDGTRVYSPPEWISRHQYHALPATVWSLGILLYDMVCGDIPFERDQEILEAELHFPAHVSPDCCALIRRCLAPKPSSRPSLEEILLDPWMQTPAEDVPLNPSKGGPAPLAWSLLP
Procedure, shortened: (§3)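 For each of Pim-1, Pim-2 and Pim-3 (His6-tagged full-length human), compounds were titrated over 10 concentrations in duplicate, typically from 30 μM, with ATP at 40 μM, equal to apparent KM. Bad Ser112 phosphorylation was read as the 665/615 nm TR-FRET ratio and IC50 fitted by 4-parameter logistic model.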

[4] = molecular target: T2, Pim-1 (Homo sapiens, UniProt P11309); experiment: TR-FRET assay, Pim-1 kinase (phosphorylation of Bad Ser112); format: biochemical; settings: TR-FRET; ATP 40 μM; read-out: IC50 Pim1
T2 construct: His6-labelled recombinant full-length human Pim-1, Pim-2 or Pim-3 protein; His6; made in house
T2 sequence (P11309 whole entry): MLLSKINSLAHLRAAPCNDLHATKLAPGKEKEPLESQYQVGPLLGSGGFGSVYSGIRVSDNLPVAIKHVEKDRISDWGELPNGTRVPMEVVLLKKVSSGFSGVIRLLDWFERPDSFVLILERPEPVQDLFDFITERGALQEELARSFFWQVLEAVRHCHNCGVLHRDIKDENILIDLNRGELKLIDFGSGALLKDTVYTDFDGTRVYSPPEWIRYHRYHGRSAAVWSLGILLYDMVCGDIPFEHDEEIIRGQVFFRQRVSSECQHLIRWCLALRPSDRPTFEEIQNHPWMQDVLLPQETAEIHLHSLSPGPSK
Procedure, shortened: as §3

[5] = molecular target: T3, Pim-3 (Homo sapiens, UniProt Q86V86); experiment: TR-FRET assay, Pim-3 kinase (phosphorylation of Bad Ser112); format: biochemical; settings: TR-FRET; ATP 40 μM; read-out: IC50 Pim3
T3 construct: His6-labelled recombinant full-length human Pim-1, Pim-2 or Pim-3 protein; His6; made in house
Procedure, shortened: as §3

[6] = molecular target: PLK1 (Homo sapiens, UniProt P53350); experiment: PLK1 biochemical inhibition
Chain of PLK1 (P53350 whole entry, species assumed): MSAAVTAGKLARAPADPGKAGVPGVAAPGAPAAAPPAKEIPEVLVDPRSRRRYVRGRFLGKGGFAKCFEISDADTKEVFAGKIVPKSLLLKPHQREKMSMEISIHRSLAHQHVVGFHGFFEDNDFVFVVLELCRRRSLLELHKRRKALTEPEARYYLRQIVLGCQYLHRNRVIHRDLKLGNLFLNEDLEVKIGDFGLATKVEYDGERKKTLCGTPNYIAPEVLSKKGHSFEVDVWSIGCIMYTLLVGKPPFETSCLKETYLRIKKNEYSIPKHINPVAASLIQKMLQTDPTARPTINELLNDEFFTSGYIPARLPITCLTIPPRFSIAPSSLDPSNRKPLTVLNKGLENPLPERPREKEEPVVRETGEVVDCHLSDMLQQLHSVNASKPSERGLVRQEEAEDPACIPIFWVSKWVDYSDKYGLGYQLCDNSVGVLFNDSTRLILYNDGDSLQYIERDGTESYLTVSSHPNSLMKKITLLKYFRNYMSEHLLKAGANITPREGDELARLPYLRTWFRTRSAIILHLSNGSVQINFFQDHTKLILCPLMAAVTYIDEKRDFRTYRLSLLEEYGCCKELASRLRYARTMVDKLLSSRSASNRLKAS

[7] = system: EOL-1; experiment: Cell viability assay (CellTiter-Blue), EOL-1; format: cell-based; settings: Homo sapiens, EOL1, read-out: EC50 EOL-1 μM (lymphoma)
Text: as §1, §2

[8] = system: PI3K; experiment: PI3K biochemical inhibition
[9] = system: MOLM-13; experiment: Cell viability assay (CellTiter-Blue), MOLM-13; format: cell-based; settings: Homo sapiens
Text: as §1, §2

[10] = MV4-11 cells, cell proliferation/viability, read-out: IC50 MV4-11 μM (myeloma)
[11] = EOL-1 cells, cell proliferation/viability
[12] = MOLM-13 cells, cell proliferation/viability, read-out: IC50 MOLM-13 μM (myeloma)

| SMILES | IC50 [1, 10] [nM] | EC50 [2] [µM] | IC50 [3] [nM] | IC50 [4] [nM] | IC50 [5] [nM] | IC50 [6] [nM] | EC50 [7, 11] [nM] | IC50 [8] [nM] | IC50 ([1]; MV4-11, read-out: IC50 MV4-11 μM (myeloma)) [nM] | IC50 ([9]; MOLM-13, read-out: IC50 MOLM-13 μM (myeloma)) [nM] | EC50 [7] [nM] | IC50 [9, 12] [nM] |
| --- | --- | --- | --- | --- | --- | --- | --- | --- | --- | --- | --- | --- |
| CC(C)(CO)COC(=O)c1cnc2[nH]c3cnc(-c4cccnc4)cc3c2c1 [Example 15, 3-hydroxy-2,2-dimethylpropyl 6-(pyrid-3-yl)-9H-pyrrolo[2,3-b:5,4-c′]-dipyridine-3-carboxylate] | 100 to 1000 | 0.1 to 1 | 100 to 1000 | 1 to 100 | 1 to 100 | > 5000 | 100 to 1000 | – | – | – | – | – |
| c1cncc(-c2cc3c(cn2)[nH]c2ncccc23)c1 [Example 1, 6-pyrid-3-yl-9H-pyrrolo[2,3-b:5,4-c′]dipyridine] | 1000 to 5000 | 1 to 5 | 1000 to 5000 | 1 to 100 | 100 to 1000 | 100 to 1000 | 1000 to 5000 | – | – | – | – | – |
| O=S(=O)(NC1CC1)c1ccc(-c2c(F)cnc3[nH]c4cnc(-c5cccnc5)cc4c23)cc1 [Example 28, N-cyclopropyl-4-(3-fluoro-6-(pyrid-3-yl)-9H-pyrrolo[2,3-b:5,4-c′]-dipyrid-4-yl]benzene-sulfonamide] | – | – | > 5000 | 1 to 100 | 100 to 1000 | 1 to 100 | – | 1000 to 5000 | – | – | – | – |
| Oc1cccc(-c2c(F)cnc3[nH]c4cnc(-c5cccnc5)cc4c23)c1 [Example 26] | – | – | 1000 to 5000 | 1 to 100 | 100 to 1000 | – | – | 100 to 1000 | – | – | – | – |
| CCCN(C)c1cnc2[nH]c3cnc(-c4cccnc4)cc3c2c1 [Example 10, N-methyl-N-propyl-6-(pyrid-3-yl)-9H-pyrrolo[2,3-b:5,4-c′]dipyrid-3-amine] | 100 to 1000 | 0.1 to 1 | 1000 to 5000 | 1 to 100 | 1 to 100 | 100 to 1000 | 100 to 1000 | – | – | – | – | – |
| CN(C)CCCOc1ccc(-c2c(F)cnc3[nH]c4cnc(-c5cccnc5)cc4c23)cc1 [Example 94, 3-{-4-[3-fluoro-6-(pyrid-3-yl)-9H-pyrrolo[2,3-b:5,4-c′]dipyrid-4-yl]phenoxy}-N,N-dimethylpropan-1-amine] | – | – | 100 to 1000 | 1 to 100 | 1 to 100 | 1 to 100 | – | – | 1 to 100 | 100 to 1000 | 1 to 100 | – |
| Fc1cnc2[nH]c3cnc(-c4cccnc4)cc3c2c1-c1ccc(OCCN2CCCC2)cc1 [Example 97, 3-fluoro-6-(pyrid-3-yl)-4-{4-[2-(pyrrolidin-1-yl)ethoxy]phenyl}-9H-pyrrolo[2,3-b:5,4-c′]dipyridine] | 100 to 1000 | – | 100 to 1000 | 1 to 100 | 1 to 100 | 1 to 100 | 100 to 1000 | – | – | – | – | 100 to 1000 |
| CCN(CC)CCOc1ccc(-c2c(F)cnc3[nH]c4cnc(-c5cccnc5)cc4c23)cc1 [Example 100, N,N-diethyl-2-{4-[3-fluoro-6-(pyrid-3-yl)-9H-pyrrolo[2,3-b:5,4-c′]dipyrid-4-yl]-phenoxy}ethanamine] | 100 to 1000 | – | 100 to 1000 | 1 to 100 | 1 to 100 | 1 to 100 | 1 to 100 | – | – | – | – | 100 to 1000 |
| Fc1cnc2[nH]c3cnc(-c4cccnc4)cc3c2c1N1CCN(CCCN2CCCCC2)CC1 [Example 86, 3-fluoro-4-{4-[3-(piperid-1-yl)propyl]piperazin-1-yl}-6-(pyrid-3-yl)-9H-pyrrolo-[2,3-b:5,4-c′]-dipyridine] | 100 to 1000 | – | 100 to 1000 | 1 to 100 | 1 to 100 | 100 to 1000 | 100 to 1000 | > 5000 | – | – | – | – |
| CCN(CC)CCN1CCN(c2c(F)cnc3[nH]c4cnc(-c5cccnc5)cc4c23)CC1 [Example 79, N,N-diethyl-2-{4-[3-fluoro-6-(pyrid-3-yl)-9H-pyrrolo[2,3-b:5,4-c′]dipyrid-4-yl]-piperazin-1-yl}-ethanamine] | – | – | 1000 to 5000 | 1 to 100 | 1 to 100 | 100 to 1000 | – | 1000 to 5000 | – | – | – | – |
| COc1cc(OC)cc(-c2c(F)cnc3[nH]c4cnc(-c5cccnc5)cc4c23)c1 [Example 23, 4-(3,5-dimethoxy-phenyl)-3-fluoro-6-(pyrid-3-yl)-9H-pyrrolo-[2,3-b:5,4-c′]dipyridine] | – | – | > 5000 | 1 to 100 | 100 to 1000 | 1000 to 5000 | – | > 5000 | – | – | – | – |
| CCN(CC)C(=O)c1cccc(-c2cnc3[nH]c4cnc(-c5cccnc5)cc4c3c2)c1 [Example 119, N,N-diethyl-3-[6-(pyrid-3-yl)-9H-pyrrolo[2,3-b:5,4-c′]dipyrid-3-yl]-benzamide] | 100 to 1000 | – | 100 to 1000 | 1 to 100 | 1 to 100 | 100 to 1000 | 1 to 100 | – | – | – | – | 100 to 1000 |
| COc1cnc2[nH]c3cnc(-c4cccnc4)cc3c2c1-c1ccc(NS(C)(=O)=O)cc1 [Example 44, N-[4-(3-methoxy-6-(pyrid-3-yl)-9H-pyrrolo[2,3-b:5,4-c′]dipyrid-4-yl)phenyl]methane-sulfonamide] | 1 to 100 | – | 1 to 100 | 1 to 100 | 1 to 100 | 1 to 100 | 1 to 100 | 1 to 100 | – | – | – | 1 to 100 |
| Fc1cnc2[nH]c3cnc(-c4cccnc4)cc3c2c1/C=C/C1CC1 [Example 27, 4-[(E)-2-cyclopropyl-ethenyl]-3-fluoro-6-(pyrid-3-yl)-9H-pyrrolo-[2,3-b:5,4-c′]dipyridine] | – | – | > 5000 | 1 to 100 | 100 to 1000 | – | – | > 5000 | – | – | – | – |
| NS(=O)(=O)c1cccc(-c2c(F)cnc3[nH]c4cnc(-c5cccnc5)cc4c23)c1 [Example 21, 3-[3-Fluoro-6-(pyrid-3-yl)-9H-pyrrolo[2,3-b:5,4-c′]dipyrid-4-yl]-benzenesulfonamide] | – | – | > 5000 | 1 to 100 | 100 to 1000 | 1 to 100 | – | 1000 to 5000 | – | – | – | – |

Source: patent US20110178053A1, “AZACARBOLINE DERIVATIVES, PREPARATION METHOD THEREOF AND THERAPEUTIC USE OF SAME” (SANOFI-AVENTIS, priority 2008, published 2011)
